Patent US7285567B2, “Halogenated benzamide derivatives” (Romark Laboratories, L.C., priority 2005, dated 2007)
Where two headings read alike, the source gives them in different places.

Columns and labels:
[1] = test system: hepatitis C virus (HCV) replicon; assay: HCV replication in AVA5 replicon cell culture, 3-day assay; assay type: cell-based; conditions: AVA5 cells
Experimental: (§1) Anti-Hepatitis C Virus (HCV) analyses and an assessment of cytotoxicity were performed in a 3-day assay in the HCV replicon-containing human hepatoblastoma cell line, AVA5 (Okuse, C., Rinaudo, J. A., Farrar, K., Wells, F. & Korba, B. E. Enhancement of antiviral activity against hepatitis C virus in vitro by interferon combination therapy. Antivir. Res. 65, 23-34 (2005)) as previously described (Blight, K. J., Kolykhalov, A. A. & Rice, C. M. Efficient initiation of HCV RNA replication in cell culture. Science 290, 1972-1974 (2000)).
(§2) Values presented (±standard deviations [S.D.]) were calculated by linear regression analysis using data combined from all treated cultures. S.D. were calculated using the standard error of regression generated from the linear regression analyses (QuattroPro™). EC50, EC90=drug concentration at which a 2-fold, or a 10-fold depression of HCV RNA (relative to the average levels in untreated cultures), respectively, was observed. CC50=drug concentration at which a 2-fold depression of neutral red dye uptake was observed relative to the average levels in untreated cultures. Selectivity index=CC50/EC50.

Hepatitis B Virus (HBV) = assay: HBV replication in 2.2.15 cell culture, 9-day assay; assay type: cell-based; conditions: for EC50 / EC90: Hepatitis B virus, 2.2.15 cells
Experimental: (§3) Anti-Hepatitis B Virus (HBV) analyses and an assessment of cytotoxicity were performed in a 9-day assay in the chronically-producing HBV human hepatoblastoma cell line, 2.2.15, as previously described (Korba, B. E. & Gerin, J. L. Use of a standardized cell culture assay to assess activities of nucleosides analogues against hepatitis B virus replication. Antivir. Res. 19, 55-70 (1992)).
(§4) Values presented (±standard deviations [S.D.]) were calculated by linear regression analysis using data combined from all treated cultures. S.D. were calculated using the standard error of regression generated from linear regression analyses (QuattroPro™). EC50, EC90=drug concentration at which a 2-fold, or a 10-fold depression of HBV DNA (relative to the average levels in untreated cultures), respectively, was observed, CC50=drug concentration at which a 2-fold depression of neutral red dye uptake (relative to the average levels in untreated cultures) was observed, The EC90 values were used for the calculation of the Selectivity Indexes [S.I.] since at least a 3-fold depression of HBV levels is typically required to achieve statistical significance in this assay system. HBV R.I.=intracellular HBV DNA replication intermediate.

[2] = test system: Rotavirus: Simian Rotavirus SA-11; assay: microbe, parasite or virus in culture; assay type: cell-based; conditions: Simian rotavirus SA-11, MA104 cell culture
[3] = test system: anaerobic Gram-positive non-sporeforming rods; assay: CLSI agar dilution MIC, anaerobic clinical isolates; assay type: cell-based; conditions: Gram + rods (14 isolates), 48 h
Trichomonas vaginalis = assay: Antiparasite test by conventional means; assay type: cell-based; conditions: at concentrations of at least 50 μg/mL
Experimental: (§5) The above identified compounds according to Formula (IV) were tested by conventional means against Trichomis vaginalis, Giardia Intestinalis, and Trypanosoma brucei.

Trypanosoma brucei = assay: Antiparasite test by conventional means; assay type: cell-based; conditions: at concentrations of at least 50 μg/mL
Experimental: as §5

Giardia intestinalis = assay: Antiparasite test by conventional means; assay type: cell-based; conditions: at concentrations of at least 50 μg/mL
Experimental: as §5

[4] = test system: anaerobic bacteria (all 142 isolates); assay: CLSI agar dilution MIC, all anaerobic clinical isolates; assay type: cell-based
[5] = test system: Coronavirus: canine coronavirus strain S-378; assay: microbe, parasite or virus in culture; assay type: cell-based; conditions: canine coronavirus strain S-378, A72 cell culture
[6] = Cytotoxicity in AVA5 cells (neutral red dye uptake); assay type: cell-based, human; conditions: human, 2-fold depression of neutral red dye uptake
Experimental: as §1, §2

B. fragilis group = assay: CLSI agar dilution MIC, anaerobic clinical isolates; assay type: cell-based; conditions: Bacteroides fragilis, B. fragilis gp (40 isolates), 48 h, 35° C.
Experimental: (§6) Methods. Recent clinical anaerobic isolates (2000 to date) comprised 40 B. fragilis group, 26 Prevotella/Porphyromonas, 28 fusobacteria, 16 anaerobic Gram positive cocci, 14 anaerobic Gram-positive non-sporeforming rods and 18 clostridia. CLSI agar dilution MIC methodology with enriched Brucella blood agar and inocula of 1×10^5 cfu/spot was used. Plates were incubated in an anaerobic glove box at 35° C. for 48 h. Results.

fusobacteria = assay: as above; assay type: cell-based; conditions: Fusobacteria (28 isolates), 48 h
Experimental: as §6

Prevotella/Porphyromonas = assay: as above; assay type: cell-based; conditions: Prev/Porphy (26 isolates), 48 h
Experimental: as §6

[7] = Cytotoxicity in 2.2.15 cells (neutral red dye uptake); assay type: cell-based; conditions: human, 2-fold depression of neutral red dye uptake
Experimental: as §3, §4

Influenza A: PR8 strain = assay: microbe, parasite or virus in culture; assay type: cell-based, Influenza A virus
clostridia = assay: organism not typed; assay type: cell-based; conditions: Clostridia (18 isolates), agar dilution, 48 h
[8] = test system: Rhabdovirus: Vesicular stomatitis virus; assay: microbe, parasite or virus in culture; assay type: cell-based
[9] = test system: anaerobic Gram positive cocci; assay: CLSI agar dilution MIC, anaerobic clinical isolates; assay type: cell-based; conditions: Gram + cocci (16 isolates), 48 h
[10] = test system: Herpes Simplex type 1: strain F1; assay: microbe, parasite or virus in culture; assay type: cell-based, Herpes Simplex virus type 1; conditions: Herpes Simplex type 1 strain F1, HEp-2 cell culture
[11] = All (142 isolates), agar dilution, 48 h

For `CC(=O)Oc1c(C)cccc1C(=O)Nc1ncc(Br)s1` [RM-4803, 2-(acetolyloxy)-3-methyl-N-(5-bromo-2-thiazolyl)benzamide], the “Selectivity Index” value ([1]; CC50/EC50) was 7.6, the EC50 ([1]; Hepatitis C virus, 2-fold depression of HCV RNA, read-out: EC50) was 37 ± 2.7 µM and the EC90 ([1]; Hepatitis C virus, 10-fold depression of HCV RNA, read-out: EC90) was 98 ± 9.3 µM. It also gave an EC50 (Hepatitis B Virus (HBV); 2-fold depression of HBV DNA, read-out: Extracellular Virion DNA EC50) of 6.3 ± 0.7 µM, an EC90 (Hepatitis B Virus (HBV); 10-fold depression of HBV DNA, read-out: Extracellular Virion DNA EC90) of 15 ± 1.1 µM and an EC50 (Hepatitis B Virus (HBV); intracellular HBV DNA replication intermediate, 2-fold depression, read-out: Intracellular HBV R.I. EC50) of 12 ± 1.5 µM. For the same compound, the EC90 (Hepatitis B Virus (HBV); intracellular HBV DNA replication intermediate, 10-fold depression, read-out: Intracellular HBV R.I. EC90) was 50 ± 5.5 µM, the “Selectivity Index R.I.” value (Hepatitis B Virus (HBV); calculated with EC90 values (CC50/EC90), HBV R.I.) was over 20 and the “Selectivity Index Virion” value (Hepatitis B Virus (HBV); calculated with EC90 values (CC50/EC90), virion DNA) was over 67. For the same compound, the EC50 ([2]; Rotavirus A) was 0.06 µM, the “SI (selectivity index) = CC50/EC50” value ([2]; CC50 by MTT) was over 2500 and the MIC50 [3] was over 32 µg/mL. For the same compound, the MIC90 [3] was over 32 µg/mL, the antiparasite activity (Trichomonas vaginalis) was “failed to exhibit antiparasite activitity” and the antiparasite activity (Trypanosoma brucei) was “failed to exhibit antiparasite activitity”. The antiparasite activity (Giardia intestinalis) was “failed to exhibit antiparasite activitity”, the MIC50 [4, 11] was over 32 µg/mL and the MIC90 [4, 11] was over 32 µg/mL. The “Activity against anaerobic bacteria groups (summary in words)” value ([4]; summary of MIC results) was “without significant activity”, the EC50 ([5]; Alphacoronavirus 1, A-72) was 4.2 µM and the “SI (selectivity index) = CC50/EC50” value ([5]; CC50 by MTT) was 13. The CC50 at 3 day [6] was 282 ± 21 µM, the MIC50 (B. fragilis group) was over 32 µg/mL and the MIC90 (B. fragilis group) was over 32 µg/mL. The MIC50 (fusobacteria) was over 32 µg/mL, the MIC90 (fusobacteria) was over 32 µg/mL and the MIC50 (Prevotella/Porphyromonas) was over 32 µg/mL. For the same compound, the MIC90 (Prevotella/Porphyromonas) was over 32 µg/mL, the CC50 at 9 day [7] was over 1000 µM and the “SI (selectivity index) = CC50/EC50” value (Influenza A: PR8 strain; Influenza A PR8 strain, MDCK cell culture, CC50 by MTT) was over 50. For the same compound, the EC50 (Influenza A: PR8 strain; Influenza A virus, PR8, MDCK) was 2.8 µM, the MIC50 (clostridia; read-out: MIC50) was over 32 µg/mL and the MIC90 (clostridia; read-out: MIC90) was over 32 µg/mL. The EC50 ([8]; MA104) was 2.8 µM, the “SI (selectivity index) = CC50/EC50” value ([8]; MA104 cell culture, CC50 by MTT) was over 50 and the MIC50 [9] was over 32 µg/mL. The MIC90 [9] was over 32 µg/mL, the “SI (selectivity index) = CC50/EC50” value ([10]; CC50 by MTT) was 3 and the EC50 ([10]; Human alphaherpesvirus 1) was 5.6 µM.
